Where “and” joins values, the source holds several entries; their conditions need not be identical. Equal entries are not always repeated. Marks after values point to notes of the source that are not given here.
Legend:
[1] = In vitro release of BP or HM from PLGA 50:50 rods; format: physicochemical; conditions: BP rods of first batch
[2] = test system: rats with sciatic nerve ligation; assay: Paw withdrawal threshold after sciatic nerve ligation, rods placed parallel to the nerve; format: in vivo, Sprague-Dawley rats
rats [3] = assay: Tail flick test after intrathecal implantation of PLGA rods; format: in vivo; conditions: for % MPE, tail flick test, Average: average of 6 rats
rats [4] = assay: Paw withdrawal test after intrathecal implantation of PLGA rods; format: in vivo; conditions: for % MPE, paw withdrawal test, Average: average of 6 rats
[5] = Drug release studies of PLGA 85:15 rods (Example 2); format: physicochemical
rats [6] = assay: Anesthesia after intrathecal polymeric implants, all sites tested (Example 2); format: in vivo; conditions: intrathecal rods
[7] = rat
[8] = trapezoidal method, individual rats, listed as BP
[9] = trapezoidal method, mean of 6 rats

## CCCCN1CCCCC1C(=O)Nc1c(C)cccc1C (stereo not shown) [Bupivacaine, bupivacaine]
[1]
  in vitro release behavior: zero order release pattern with two different rates
[2]; dose doubled (4 rods/rat)
  analgesia, paw withdrawal threshold (difference score): possible to achieve the analgesic effect
[2]; first part, single dose (2 rods/rat)
  analgesia, paw withdrawal threshold (difference score): insufficient to provide analgesia
Rats [3]; 2h
  % MPE, tail flick test, Average: 40.52 % MPE
Rats [3]; 2h after intrathecal implantation of PLGA rod, individual rats
  % MPE, tail flick test: 31.19 % MPE and 41.43 % MPE and 63.08 % MPE and 30.89 % MPE and 23.85 % MPE and 52.69 % MPE
Rats [3]; 4h
  % MPE, tail flick test, Average: 39.06 % MPE
Rats [3]; 4h, individual rats
  % MPE, tail flick test: 24.2268 % MPE and 38.87 % MPE and 40.26 % MPE and 44.7644 % MPE and 11.79 % MPE and 74.46 % MPE
Rats [3]; % MPE versus time in days, trapezoidal method, individual rats, listed as BP
  Area under the curve (AUC), tail flick test: 130.77 and 82.59 and 112.23 and 137.33 and 90.32 and 72.88
Rats [3]; % MPE versus time in days, trapezoidal method, mean of 6 rats
  Area under the curve (AUC), tail flick test, Mean: 104.35 * #
Rats [3]; D1
  % MPE, tail flick test, Average: 23.1672 % MPE
Rats [3]; D1, individual rats
  % MPE, tail flick test: 14.95 % MPE and 27.11 % MPE and 31.79 % MPE and 25.65 % MPE and 11.54 % MPE and 27.96 % MPE
Rats [3]; D2
  % MPE, tail flick test, Average: 22.55 % MPE
Rats [3]; D2, individual rats
  % MPE, tail flick test: 13.4 % MPE and 32.23 % MPE and 40.51 % MPE and 16.49 % MPE and 13.33 % MPE and 19.35 % MPE
Rats [3]; D3
  % MPE, tail flick test, Average: 19.97 % MPE
Rats [3]; D3, individual rats
  % MPE, tail flick test: 14.95 % MPE and 22.51 % MPE and 26.92 % MPE and 13.87 % MPE and 18.46 % MPE and 23.12 % MPE
Rats [3]; D4
  % MPE, tail flick test, Average: 10.7 % MPE
Rats [3]; D4, individual rats
  % MPE, tail flick test: 14.43 % MPE and 14.0665 % MPE and 7.949 % MPE and 5.236 % MPE and 12.5641 % MPE and 9.946 % MPE
Rats [3]; D5
  % MPE, tail flick test, Average: 8.394 % MPE
Rats [3]; D5, individual rats
  % MPE, tail flick test: 9.536 % MPE and 4.092 % MPE and 7.692 % MPE and 5.236 % MPE and 7.949 % MPE and 15.86 % MPE
Rats [3]; D6
  % MPE, tail flick test, Average: 5.511 % MPE
Rats [3]; D6, individual rats
  % MPE, tail flick test: 8.247 % MPE and 0.7673 % MPE and 7.949 % MPE and 8.115 % MPE and 7.179 % MPE and 0.8065 % MPE
Rats [4]; 2h, L
  % MPE, paw withdrawal test, Average: 26.10 % MPE
Rats [4]; 2h, R
  % MPE, paw withdrawal test, Average: 27.87 % MPE
Rats [4]; 2h, left (L) hind paw, individual rats
  % MPE, paw withdrawal test: 24.92 % MPE and 36.09 % MPE and 19.26 % MPE and 23.67 % MPE and 15.95 % MPE and 36.73 % MPE
Rats [4]; 2h, right (R) hind paw, individual rats
  % MPE, paw withdrawal test: 19.06 % MPE and 39.35 % MPE and 20.77 % MPE and 27 % MPE and 22.43 % MPE and 38.63 % MPE
Rats [4]; 4h, L
  % MPE, paw withdrawal test, Average: 26.48 % MPE
Rats [4]; 4h, L, individual rats
  % MPE, paw withdrawal test: 27.69 % MPE and 55.64 % MPE and 11.48 % MPE and 14.67 % MPE and 37.74 % MPE and 11.64 % MPE
Rats [4]; 4h, R
  % MPE, paw withdrawal test, Average: 29.68 % MPE
Rats [4]; 4h, R, individual rats
  % MPE, paw withdrawal test: 38.12 % MPE and 58.84 % MPE and 13.08 % MPE and 12 % MPE and 44.11 % MPE and 11.91 % MPE
Rats [4]; D1, L
  % MPE, paw withdrawal test, Average: 23.61 % MPE
Rats [4]; D1, L, individual rats
  % MPE, paw withdrawal test: 33.85 % MPE and 35.71 % MPE and 11.11 % MPE and 39 % MPE and 13.62 % MPE and 8.36 % MPE
Rats [4]; D1, R
  % MPE, paw withdrawal test, Average: 22.68 % MPE
Rats [4]; D1, R, individual rats
  % MPE, paw withdrawal test: 30.62 % MPE and 43.32 % MPE and 11.54 % MPE and 32 % MPE and 11.03 % MPE and 7.58 % MPE
Rats [4]; D2, L
  % MPE, paw withdrawal test, Average: 26.91 % MPE
Rats [4]; D2, L, individual rats
  % MPE, paw withdrawal test: 28.92 % MPE and 42.86 % MPE and 18.15 % MPE and 29 % MPE and 33.07 % MPE and 9.45 % MPE
Rats [4]; D2, R
  % MPE, paw withdrawal test, Average: 27.13 % MPE
Rats [4]; D2, R, individual rats
  % MPE, paw withdrawal test: 28.12 % MPE and 44.76 % MPE and 15.77 % MPE and 28.33 % MPE and 34.60 % MPE and 11.19 % MPE
Rats [4]; D3, L
  % MPE, paw withdrawal test, Average: 15.06 % MPE
Rats [4]; D3, L, individual rats
  % MPE, paw withdrawal test: 20.37 % MPE and 7.33 % MPE and 9.73 % MPE and 5.09 % MPE and 16.62 % MPE and 31.20 % MPE
Rats [4]; D3, R
  % MPE, paw withdrawal test, Average: 15.70 % MPE
Rats [4]; D3, R, individual rats
  % MPE, paw withdrawal test: 17.31 % MPE and 4.67 % MPE and 12.55 % MPE and 0.36 % MPE and 24.69 % MPE and 34.66 % MPE
Rats [4]; D4, L
  % MPE, paw withdrawal test, Average: 9.72 % MPE
Rats [4]; D4, L, individual rats
  % MPE, paw withdrawal test: 7.78 % MPE and 13.67 % MPE and 1.55 % MPE and 0 % MPE and 25.54 % MPE and 9.77 % MPE
Rats [4]; D4, R
  % MPE, paw withdrawal test, Average: 9.56 % MPE
Rats [4]; D4, R, individual rats
  % MPE, paw withdrawal test: 8.46 % MPE and 15.67 % MPE and 0.76 % MPE and 1.08 % MPE and 20.94 % MPE and 10.47 % MPE
Rats [4]; D5, L
  % MPE, paw withdrawal test, Average: 6.49 % MPE
Rats [4]; D5, L, individual rats
  % MPE, paw withdrawal test: 0.74 % MPE and 1 % MPE and 1.94 % MPE and 1.45 % MPE and 18.77 % MPE and 15.04 % MPE
Rats [4]; D5, R
  % MPE, paw withdrawal test, Average: 6.55 % MPE
Rats [4]; D5, R, individual rats
  % MPE, paw withdrawal test: 0.38 % MPE and 3 % MPE and 2.66 % MPE and 1.44 % MPE and 18.44 % MPE and 13.36 % MPE
Rats [4]; D6, L
  % MPE, paw withdrawal test, Average: 4.88 % MPE
Rats [4]; D6, L, individual rats
  % MPE, paw withdrawal test: 0.37 % MPE and 7 % MPE and 0.39 % MPE and −1.82 % MPE and 10.15 % MPE and 13.16 % MPE
Rats [4]; D6, R
  % MPE, paw withdrawal test, Average: 7.35 % MPE
Rats [4]; D6, R, individual rats
  % MPE, paw withdrawal test: 0.77 % MPE and 11 % MPE and 4.94 % MPE and 2.89 % MPE and 9.69 % MPE and 14.80 % MPE
Rats [4]; [8]
  Area under the curve (AUC), paw withdrawal test (left side): 165.34 and 63.50 and 98.08 and 77.02 and 29.59 and 139.80
  Area under the curve (AUC), paw withdrawal test (right side): 179.14 and 59.77 and 93.21 and 84.38 and 29.51 and 143.50
Rats [4]; [9]
  Area under the curve (AUC), paw withdrawal test (left side), Mean: 95.55 * #
  Area under the curve (AUC), paw withdrawal test (right side), Mean: 98.25 * #
[5]
  relative rate of drug release: released faster than the other two drugs
  release order: almost zero order
Rats [6]
  duration of anesthesia/analgesia: at least 4 days
[7]
  release from rods retrieved after termination of in vivo test: suppressed release

From US6913760B2, “Drug delivery composition” (New England Medical Hospitals, Inc., priority 2001, dated 2005)
